{"source": "patent US4837371A", "about": "“Process for concentration of an aqueous solution of amino acid” (Mitsui Toatsu Chemicals, Inc., priority 1986, dated 1989)", "key": {"[1]": {"conditions": "cited from earlier work; for solubility change with alcohol (in words): alcohol present in aqueous solution; for solubility in water (in words): at the isoelectric point"}, "[2]": {"test": "solubility of L-tryptophan in an ethanol-aqueous solution (Referential Example 1)", "format": "physicochemical", "conditions": "pH 5.89, 20° to 75° C.", "description": "The pH of the aqueous solution was adjusted to the isoelectric point (5.89), and the aqueous solution was prepared from distilled water and reagent grade ethanol. In FIG. 1, letters a, b, c and d represent the solubility curves of L-tryptophan for the ethanol solution of different compositions shown below. […]\na: Ethanol: 0 Distilled water: 100 (parts by volume) b: Ethanol: 30 Distilled water: 70 c: Ethanol: 50 Distilled water: 50 d: Ethanol: 70 Distilled water: 30"}, "[3]": {"conditions": "acid dissociation constant; listed as tryptophane; cited from earlier work"}}, "note": "Like-named read-outs stand apart in the source and are kept apart here.", "data": [{"smiles": "N[C@@H](Cc1c[nH]c2ccccc12)C(=O)O", "note": "[L-tryptophan]", "values": [{"measurement": "solubility change with alcohol (in words)", "setting": "[1]", "value": "increase in solubility"}, {"measurement": "solubility by adjustment of pH only", "setting": "[1]; pH not less than 11 or not more than 2", "value": "8 to 10", "unit": "wt. %"}, {"measurement": "increase of solubility on raising solution temperature", "setting": "[1]; solution temperature raised to 60° C.", "value": "≤ 2", "unit": "%"}, {"measurement": "solubility in water (in words)", "setting": "[1]", "value": "sparingly soluble in water at the isoelectric point"}, {"measurement": "solubility in water (in words)", "setting": "[1]; listed as tryptophane", "value": "very low solubility in water"}, {"measurement": "solubility, temperature dependence", "setting": "[2]", "value": "increases as the temperature goes up from 20 °C to 75 °C"}, {"measurement": "pK1", "setting": "[3]", "value": 2.3}]}, {"smiles": "C[C@H](N)C(=O)O", "note": "[alanine]", "values": [{"measurement": "solubility change with alcohol (in words)", "setting": "[1]", "value": "decrease in solubility"}]}, {"smiles": "N[C@@H](CSSC[C@H](N)C(=O)O)C(=O)O", "note": "[cystine]", "values": [{"measurement": "solubility in water (in words)", "setting": "[1]", "value": "sparingly soluble in water at the isoelectric point"}]}, {"smiles": "NCCCC[C@H](N)C(=O)O", "note": "[lysine]", "values": [{"measurement": "solubility in water (in words)", "setting": "[1]", "value": "highly soluble in water"}]}, {"smiles": "CSCC[C@H](N)C(=O)O", "note": "[methionine]", "values": [{"measurement": "solubility in water (in words)", "setting": "[1]", "value": "sparingly soluble in water at the isoelectric point"}]}, {"smiles": "N[C@@H](Cc1ccccc1)C(=O)O", "note": "[phenylalanine]", "values": [{"measurement": "solubility change with alcohol (in words)", "setting": "[1]", "value": "increase in solubility"}]}]}
